Read-outs that look alike come from different tables or passages of the source.
Assays:
[1] = molecular target: isolated recombinant JAK1 kinase domain (Homo sapiens (Human), UniProt P23458); test: JAK1 enzyme assay (Caliper LabChip, Ki); type: biochemical
Procedure: The activity of the isolated recombinant JAK1 and JAK2 kinase domain was measured by monitoring phosphorylation of a peptide derived from JAK3 ([…] fluorescently labeled on the N-terminus with 5-carboxyfluorescein) using the Caliper LabChip R technology (Caliper Life Sciences, Hopkinton, Mass.).

[2] = system: JAK1-dependent STAT6 phosphorylation in BEAS-2B human bronchial epithelial cells; test: JAK1 pathway assay: IL-13 stimulated STAT6 phosphorylation in BEAS-2B cells; type: cell-based; settings: BEAS-2B cells, IL-13 stimulation, read-out: IL-13 p-STAT6 BEAS-2B IC50
Procedure: JAK1 Pathway Assay in Cell Lines was Carried Out as Follows:
Inhibitor potency (EC50) was determined in cell-based assays designed to measure JAK1 dependent STAT phosphorylation.
In one assay approach, TF-1 human erythroleukemia cells obtained from the American Type Culture Collection (ATCC; Manassas, Va.) were used to measure JAK1-dependent STAT6 phosphorylation downstream of IL-13 stimulation. Prior to use in the assays, TF-1 cells were starved of GM-CSF overnight in OptiMEM medium (Life Technologies, Grand Island, N.Y.) supplemented with 0.5% charcoal/dextran stripped fetal bovine serum (FBS), 0.1 mM non-essential amino acids (NEAA), and 1 mM sodium pyruvate. The assays were run in 384-well plates in serum-free OptiMEM medium using 300,000 cells per well. In a second assay approach, BEAS-2B human bronchial epithelial cells obtained from ATCC were plated at 100,000 cells per well of a 96-well plate one day prior to the experiment. The BEAS-2B assay was run in complete growth medium (bronchial epithelial basal medium plus bulletkit; Lonza; Basel, Switzerland).
Test compounds were serially diluted 1:2 in DMSO and then diluted 1:50 in medium just before use. Diluted compounds were added to the cells, for a final DMSO concentration of 0.2%, and incubated for 30 min (for the TF-1 assay) or 1 hr (for the BEAS-2B assay) at 37° C. Then, cells were stimulated with human recombinant cytokine at their respective EC90 concentrations, as previously determined for each individual lot. Cells were stimulated with IL-13 (R&D Systems, Minneapolis, Minn.) for 15 min at 37° C. […] The resultant samples were frozen in the plates at −80° C. Compound mediated inhibition of STAT6 phosphorylation was measured in the cell lysates using MesoScale Discovery (MSD) technology (Gaithersburg, Md.).

[3] = molecular target: isolated recombinant JAK2 kinase domain (Homo sapiens (Human), UniProt O60674); test: JAK2 enzyme assay (Caliper LabChip, Ki); settings: read-out: JAK2 Ki
Chain of isolated recombinant JAK2 kinase domain (O60674 849-1124): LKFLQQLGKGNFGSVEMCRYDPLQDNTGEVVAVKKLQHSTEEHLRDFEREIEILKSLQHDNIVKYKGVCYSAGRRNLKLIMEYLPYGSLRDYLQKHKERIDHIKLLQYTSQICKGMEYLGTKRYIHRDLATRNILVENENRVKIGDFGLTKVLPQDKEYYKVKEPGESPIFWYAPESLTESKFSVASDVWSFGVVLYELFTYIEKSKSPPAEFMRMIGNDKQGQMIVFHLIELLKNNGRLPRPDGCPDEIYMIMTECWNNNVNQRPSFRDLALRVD
Procedure: JAK Enzyme Assays were Carried Out as Follows:
The activity of the isolated recombinant JAK1 and JAK2 kinase domain was measured by monitoring phosphorylation of a peptide derived from JAK3 ([sequence] fluorescently labeled on the N-terminus with 5-carboxyfluorescein) using the Caliper LabChip R technology (Caliper Life Sciences, Hopkinton, Mass.). […] After termination of the kinase reaction, the proportion of phosphorylated product was determined as a fraction of total peptide substrate using the Caliper LabChip R 3000 according to the manufacturer's specifications.

Chain of isolated recombinant JAK1 kinase domain (P23458 875-1153): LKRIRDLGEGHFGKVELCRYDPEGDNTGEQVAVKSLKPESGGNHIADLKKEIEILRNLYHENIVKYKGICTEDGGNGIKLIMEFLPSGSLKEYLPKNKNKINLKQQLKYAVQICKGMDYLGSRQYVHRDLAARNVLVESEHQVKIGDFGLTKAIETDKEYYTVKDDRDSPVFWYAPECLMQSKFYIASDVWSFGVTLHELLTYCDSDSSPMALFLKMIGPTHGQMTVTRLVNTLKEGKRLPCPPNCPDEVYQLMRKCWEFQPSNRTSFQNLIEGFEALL

Structure (SMILES) | Ki [1] [nM] | Ki [3] [nM] | Ki ([1]; formic acid) [nM] | Ki ([3]; formic acid) [nM] | IC50 [2] [nM] | IC50 ([2]; Homo sapiens, BEAS-2B) [nM] | IC50 ([2]; formic acid) [nM]
CN1CCC(n2cc(NC(=O)c3cnn4cccnc34)c(-c3cc4c(cc3OC(F)F)NCCS4)n2)C1=O (single isomer, unassigned) [Example 125, N-[3-[6-(difluoromethoxy)-3,4-dihydro-2H-1,4-benzothiazin-7-yl]-1-(1-methyl-2-oxo-pyrrolidin-3-yl)pyrazol-4-yl]pyrazolo[1,5-a]pyrimidine-3-carboxamide] | 0.15 | 0.11 | – | – | 81 | – | –
O=C(Nc1cn(C2CCOC2=O)nc1-c1cc2c(cc1OC(F)F)NCCS2)c1cnn2cccnc12 (single isomer, unassigned) [Example 141, N-[3-[6-(difluoromethoxy)-3,4-dihydro-2H-1,4-benzothiazin-7-yl]-1-(2-oxotetrahydrofuran-3-yl)pyrazol-4-yl]pyrazolo[1,5-a]pyrimidine-3-carboxamide] | 0.17 | 0.09 | – | – | – | 11 | –
O=C(Nc1cn(C2CCOC2=O)nc1-c1cc2c(cc1OC(F)F)NCCS2)c1cnn2cccnc12 (single isomer, unassigned) [Example 142, N-[3-[6-(difluoromethoxy)-3,4-dihydro-2H-1,4-benzothiazin-7-yl]-1-(2-oxotetrahydrofuran-3-yl)pyrazol-4-yl]pyrazolo[1,5-a]pyrimidine-3-carboxamide] | 0.09 | 0.06 | – | – | 15 | – | –
O=C(Nc1cn(C2CCOC2=O)nc1-c1cc2c(cc1OC(F)F)NCCO2)c1cnn2cccnc12 (single isomer, unassigned) [Example 145, N-[3-[6-(difluoromethoxy)-3,4-dihydro-2H-1,4-benzoxazin-7-yl]-1-(2-oxotetrahydrofuran-3-yl)pyrazol-4-yl]pyrazolo[1,5-a]pyrimidine-3-carboxamide] | 0.6 | 0.42 | – | – | 36 | – | –
O=C(Nc1cn(C2CCOC2=O)nc1-c1cc2c(cc1OC(F)F)NCCO2)c1cnn2cccnc12 (single isomer, unassigned) [Example 146, N-[3-[6-(difluoromethoxy)-3,4-dihydro-2H-1,4-benzoxazin-7-yl]-1-(2-oxotetrahydrofuran-3-yl)pyrazol-4-yl]pyrazolo[1,5-a]pyrimidine-3-carboxamide; formic acid] | – | – | 0.32 | 0.29 | – | – | 74
O=C(Nc1c[nH]nc1-c1cc2ccccc2cc1OC(F)F)c1cnn2cccnc12 [Example 1, N-(3-(3-(difluoromethoxy)naphthalen-2-yl)-1H-pyrazol-4-yl)pyrazolo[1,5-a]pyrimidine-3-carboxamide] | 0.31 | 0.14 | – | – | – | 6 | –
O=C(Nc1cn(CC(=O)N2CCC(CN3CCOCC3)CC2)nc1-c1cc2ccccc2cc1OC(F)F)c1cnn2cccnc12 [Example 3, N-(3-(3-(difluoromethoxy)naphthalen-2-yl)-1-(2-(4-(morpholinomethyl)piperidin-1-yl)-2-oxoethyl)-1H-pyrazol-4-yl)pyrazolo[1,5-a]pyrimidine-3-carboxamide] | 0.38 | 0.97 | – | – | – | 8 | –
Cn1cc(NC(=O)c2cnn3cccnc23)c(-c2cc3ccccc3cc2OC(F)F)n1 [Example 4, N-(3-(3-(difluoromethoxy)naphthalen-2-yl)-1-methyl-1H-pyrazol-4-yl)pyrazolo[1,5-a]pyrimidine-3-carboxamide] | 0.22 | 0.12 | – | – | – | 22 | –
COC(=O)c1cc2cc(OC(F)F)c(-c3n[nH]cc3NC(=O)c3cnn4cccnc34)cc2s1 [Example 7, Methyl 5-(difluoromethoxy)-6-(4-(pyrazolo[1,5-a]pyrimidine-3-carboxamido)-1H-pyrazol-3-yl)benzo[b]thiophene-2-carboxylate] | 0.17 | 0.11 | – | – | – | 6 | –
COC(=O)Cn1cc(NC(=O)c2cnn3cccnc23)c(-c2cc3sccc3cc2OC(F)F)n1 [Example 8, Methyl 2-(3-(5-(difluoromethoxy)benzo[b]thiophen-6-yl)-4-(pyrazolo[1,5-a]pyrimidine-3-carboxamido)-1H-pyrazol-1-yl)acetate] | 0.32 | 0.29 | – | – | – | 10 | –

Now from value to compound, other results behind:

Ki [1] [nM] | Ki [3] [nM] | Ki ([1]; formic acid) [nM] | Ki ([3]; formic acid) [nM] | Structure (SMILES) | IC50 [2] [nM] | IC50 ([2]; Homo sapiens, BEAS-2B) [nM] | IC50 ([2]; formic acid) [nM]
0.17 | 0.19 | – | – | CC1CNc2cc(OC(F)F)c(-c3nn(CC(=O)N(C)C)cc3NC(=O)c3cnn4cccnc34)cc2S1 (single isomer, unassigned) [Example 106, N-[3-[6-(difluoromethoxy)-2-methyl-3,4-dihydro-2H-1,4-benzothiazin-7-yl]-1-[2-(dimethylamino)-2-oxo-ethyl]pyrazol-4-yl]pyrazolo[1,5-a]pyrimidine-3-carboxamide] | 27 | – | –
0.2 | 0.23 | – | – | CC1CSc2cc(-c3nn(CC(=O)N4CCCCC4)cc3NC(=O)c3cnn4cccnc34)c(OC(F)F)cc2N1 (single isomer, unassigned) [Example 107, N-[3-[6-(difluoromethoxy)-3-methyl-3,4-dihydro-2H-1,4-benzothiazin-7-yl]-1-[2-oxo-2-(1-piperidyl)ethyl]pyrazol-4-yl]pyrazolo[1,5-a]pyrimidine-3-carboxamide] | – | 11 | –
0.19 | 0.23 | – | – | CC1CSc2cc(-c3nn(CC(=O)N4CCCCC4)cc3NC(=O)c3cnn4cccnc34)c(OC(F)F)cc2N1 (single isomer, unassigned) [Example 108, N-[3-[6-(difluoromethoxy)-3-methyl-3,4-dihydro-2H-1,4-benzothiazin-7-yl]-1-[2-oxo-2-(1-piperidyl)ethyl]pyrazol-4-yl]pyrazolo[1,5-a]pyrimidine-3-carboxamide] | 12 | – | –
0.2 | 0.21 | – | – | CC1CSc2cc(-c3nn(CC(=O)N4CC=CCC4)cc3NC(=O)c3cnn4cccnc34)c(OC(F)F)cc2N1 (single isomer, unassigned) [Example 111, N-[3-[6-(difluoromethoxy)-3-methyl-3,4-dihydro-2H-1,4-benzothiazin-7-yl]-1-[2-(3,6-dihydro-2H-pyridin-1-yl)-2-oxo-ethyl]pyrazol-4-yl]pyrazolo[1,5-a]pyrimidine-3-carboxamide] | – | 15 | –
0.15 | 0.18 | – | – | CC1CSc2cc(-c3nn(CC(=O)N4CC=CCC4)cc3NC(=O)c3cnn4cccnc34)c(OC(F)F)cc2N1 (single isomer, unassigned) [Example 112, N-[3-[6-(difluoromethoxy)-3-methyl-3,4-dihydro-2H-1,4-benzothiazin-7-yl]-1-[2-(3,6-dihydro-2H-pyridin-1-yl)-2-oxo-ethyl]pyrazol-4-yl]pyrazolo[1,5-a]pyrimidine-3-carboxamide] | 10 | – | –
0.22 | 0.27 | – | – | CC1CSc2cc(-c3nn(CC(=O)N(C)C)cc3NC(=O)c3cnn4cccnc34)c(OC(F)F)cc2N1 (single isomer, unassigned) [Example 113, N-[3-[6-(difluoromethoxy)-3-methyl-3,4-dihydro-2H-1,4-benzothiazin-7-yl]-1-[2-(dimethylamino)-2-oxo-ethyl]pyrazol-4-yl]pyrazolo[1,5-a]pyrimidine-3-carboxamide] | – | 22 | –
0.21 | 0.24 | – | – | CC1CSc2cc(-c3nn(CC(=O)N(C)C)cc3NC(=O)c3cnn4cccnc34)c(OC(F)F)cc2N1 (single isomer, unassigned) [Example 114, N-[3-[6-(difluoromethoxy)-3-methyl-3,4-dihydro-2H-1,4-benzothiazin-7-yl]-1-[2-(dimethylamino)-2-oxo-ethyl]pyrazol-4-yl]pyrazolo[1,5-a]pyrimidine-3-carboxamide] | 15 | – | –
0.88 | 0.43 | – | – | CN1CCC(n2cc(NC(=O)c3cnn4cccnc34)c(-c3cc4c(cc3OC(F)F)NCCS4)n2)C1=O (single isomer, unassigned) [Example 126, N-[3-[6-(difluoromethoxy)-3,4-dihydro-2H-1,4-benzothiazin-7-yl]-1-(1-methyl-2-oxo-pyrrolidin-3-yl)pyrazol-4-yl]pyrazolo[1,5-a]pyrimidine-3-carboxamide] | 286 | – | –
0.2 | 0.31 | – | – | O=C(Nc1cn(CC(=O)N2CCCCC2)nc1-c1cc2c(cc1OC(F)F)NCCO2)c1cnn2cccnc12 [Example 6, N-[3-[6-(difluoromethoxy)-3,4-dihydro-2H-1,4-benzoxazin-7-yl]-1-[2-oxo-2-(piperidin-1-yl)ethyl]-1H-pyrazol-4-yl]pyrazolo[1,5-a]pyrimidine-3-carboxamide] | – | 17 | –

— patent US11155557B2, “Pyrazolopyrimidine compounds and methods of use thereof” (Genentech, Inc., priority 2016, dated 2021)
